Molecular target: Citron kinase (Homo sapiens (Human), UniProt O14578)
Assay: Radiometric citron kinase assay (Eurofins Cat #16-040KP)
Format: biochemical
Details: mean of at least two independent assays; read-out: Radiometric CitK IC50
Excerpt: In some embodiments, the step of contacting the sample with the compound comprises administering the compound to a subject (e.g., a subject) suffering from cancer. Methods of determining kinase inhibition are well known in the art. For example, kinase activity of an enzyme and the inhibitory capacity of a test compound can be determined by measuring enzyme specific phosphorylation of a substrate. Commercial assays and kits can be employed. For example, kinase inhibition can be determined using a radiometric binding assay, such as using KinaseProfiler™ technology (Eurofins Discovery). This assay method directly detects product formation without the use of modified substrates or coupling enzymes. Test compounds are incubated with kinase, substrate, required cofactors and radioisotope labeled ATP. Following incubation, unreacted radioactive ATP is removed by washing and incorporation of the radiolabeled phosphate into the kinase substrate is assayed to detect phosphoryltransferase activity, which is directly proportional to the amount of phosphorylated substrate. Inhibition of the kinase by a kinase inhibitor prevents phosphorylation of the substrate and thereby limits the incorporation of radiolabeled phosphate. Such an assay is compatible with a microwell assay format, allowing simultaneous determination of IC50 of multiple compounds.
Compounds were screened for biochemical kinase activity (Eurofins Discovery, France) using one of two assays. […] All values in Table 1 are the mean of at least two independent assays.

Sequence of Citron kinase (O14578 whole entry): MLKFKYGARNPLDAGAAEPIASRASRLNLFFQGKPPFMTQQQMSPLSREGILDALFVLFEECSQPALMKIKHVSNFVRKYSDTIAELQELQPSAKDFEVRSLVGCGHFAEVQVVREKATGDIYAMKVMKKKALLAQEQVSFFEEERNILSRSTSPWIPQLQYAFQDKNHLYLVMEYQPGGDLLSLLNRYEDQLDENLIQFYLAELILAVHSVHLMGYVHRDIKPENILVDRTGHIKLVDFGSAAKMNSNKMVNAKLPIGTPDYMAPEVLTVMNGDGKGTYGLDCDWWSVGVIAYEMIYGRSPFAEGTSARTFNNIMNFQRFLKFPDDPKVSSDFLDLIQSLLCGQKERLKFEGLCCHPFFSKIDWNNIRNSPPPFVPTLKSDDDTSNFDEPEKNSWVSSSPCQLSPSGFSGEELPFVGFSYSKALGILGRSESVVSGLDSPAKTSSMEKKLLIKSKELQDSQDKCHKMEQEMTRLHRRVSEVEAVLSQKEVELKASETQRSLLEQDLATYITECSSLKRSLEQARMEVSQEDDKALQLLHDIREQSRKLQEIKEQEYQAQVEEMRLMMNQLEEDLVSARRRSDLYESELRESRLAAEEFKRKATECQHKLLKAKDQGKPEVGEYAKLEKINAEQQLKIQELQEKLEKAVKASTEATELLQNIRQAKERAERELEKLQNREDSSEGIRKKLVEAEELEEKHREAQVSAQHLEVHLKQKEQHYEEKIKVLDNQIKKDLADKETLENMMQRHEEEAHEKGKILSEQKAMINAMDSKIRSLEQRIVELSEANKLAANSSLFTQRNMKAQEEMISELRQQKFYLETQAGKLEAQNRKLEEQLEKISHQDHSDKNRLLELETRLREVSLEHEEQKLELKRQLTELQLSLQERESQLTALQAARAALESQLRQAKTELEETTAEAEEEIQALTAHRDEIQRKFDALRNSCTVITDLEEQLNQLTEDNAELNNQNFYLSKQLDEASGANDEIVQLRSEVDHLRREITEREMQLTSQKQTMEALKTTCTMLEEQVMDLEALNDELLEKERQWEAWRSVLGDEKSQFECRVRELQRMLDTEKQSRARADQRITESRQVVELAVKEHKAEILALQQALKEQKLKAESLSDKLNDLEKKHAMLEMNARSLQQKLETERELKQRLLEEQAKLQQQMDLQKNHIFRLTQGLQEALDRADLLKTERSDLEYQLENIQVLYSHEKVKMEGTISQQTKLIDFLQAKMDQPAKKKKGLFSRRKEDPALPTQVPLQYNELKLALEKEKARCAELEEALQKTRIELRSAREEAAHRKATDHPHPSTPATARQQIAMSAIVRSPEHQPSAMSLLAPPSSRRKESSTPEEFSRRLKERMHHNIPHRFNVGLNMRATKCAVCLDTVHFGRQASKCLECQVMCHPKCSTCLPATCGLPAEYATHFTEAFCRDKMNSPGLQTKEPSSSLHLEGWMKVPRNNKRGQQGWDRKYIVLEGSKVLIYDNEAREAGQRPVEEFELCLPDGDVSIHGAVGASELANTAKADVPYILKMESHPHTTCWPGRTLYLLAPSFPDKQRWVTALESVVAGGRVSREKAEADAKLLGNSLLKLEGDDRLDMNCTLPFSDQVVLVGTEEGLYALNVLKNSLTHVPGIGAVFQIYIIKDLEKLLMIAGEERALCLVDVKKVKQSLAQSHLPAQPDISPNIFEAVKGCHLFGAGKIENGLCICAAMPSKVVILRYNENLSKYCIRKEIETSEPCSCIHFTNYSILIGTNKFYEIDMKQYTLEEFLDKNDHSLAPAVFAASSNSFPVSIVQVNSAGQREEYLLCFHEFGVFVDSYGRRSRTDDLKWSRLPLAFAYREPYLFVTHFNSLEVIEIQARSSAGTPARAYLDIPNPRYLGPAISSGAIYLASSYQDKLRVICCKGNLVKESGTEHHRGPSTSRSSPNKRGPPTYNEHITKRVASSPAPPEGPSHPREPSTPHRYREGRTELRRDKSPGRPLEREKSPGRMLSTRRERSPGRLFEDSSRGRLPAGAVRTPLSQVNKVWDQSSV

| IC50 [nM] | Structure (SMILES) |
| --- | --- |
| 1060 | Cc1cc(NC(=O)[C@H](N)C(C)(C)C)c(F)cc1-c1ccnc2[nH]ccc12 [Compound F-74, (2R)-2-Amino-N-[2-fluoro-5-methyl-4-(1H-pyrrolo[2,3-b]pyridin-4-yl)phenyl]-3,3-dimethyl-butanamide] |
| 316 | CC(C)C[C@@H](N)C(=O)Nc1ccc(-c2ccnc3[nH]ccc23)cc1C(F)(F)F [Compound F-76, (2R)-2-Amino-4-methyl-N-[4-(1H-pyrrolo[2,3-b]pyridin-4-yl)-2-(trifluoromethyl)phenyl]pentanamide] |
| 21.5 | CC(C)C[C@@H](N)C(=O)Nc1ccc(-c2ccnc3[nH]ccc23)c(OC(F)F)c1 [Compound F-82, (R)-2-Amino-N-(3-(difluoromethoxy)-4-(1H-pyrrolo[2,3-b]pyridin-4-yl)phenyl)-4-methylpentanamide] |
| 245 | CC(C)C[C@@H](N)C(=O)Nc1cccc(-c2ccnc3[nH]ccc23)c1 [Compound F-87, (2R)-2-Amino-4-methyl-N-[3-(1H-pyrrolo[2,3-b]pyridin-4-yl)phenyl]pentanamide] |
| 57.5 | CCc1cc(NC(=O)[C@H](N)C(C)(C)C)ccc1-c1ccnc2[nH]ccc12 [Compound F-88, (2R)-2-Amino-N-[3-ethyl-4-(1H-pyrrolo[2,3-b]pyridin-4-yl)phenyl]-3,3-dimethyl-butanamide] |
| 48.8 | Cc1cc2c(-c3ccc(NC(=O)[C@H](N)C(C)(C)C)cc3C)ccnc2[nH]1 [Compound F-91, (2R)-2-Amino-3,3-dimethyl-N-[3-methyl-4-(2-methyl-1H-pyrrolo[2,3-b]pyridin-4-yl)phenyl]butanamide] |
| 415 | Cc1cc2c(-c3ccc(NC(=O)[C@H](N)Cc4ccccc4)cc3)ccnc2[nH]1 [Compound F-92, (2R)-2-Amino-N-[4-(2-methyl-1H-pyrrolo[2,3-b]pyridin-4-yl)phenyl]-3-phenyl-propanamide] |
| 121 | CCc1cc(NC(=O)[C@H](N)C(C)(C)C)ccc1-c1ccnc2[nH]c(C)cc12 [Compound F-93, (2R)-2-Amino-N-[3-ethyl-4-(2-methyl-1H-pyrrolo[2,3-b]pyridin-4-yl)phenyl]-3,3-dimethyl-butanamide] |
| 43.7 | CN[C@H](CC(C)C)C(=O)Nc1ccc(-c2ccnc3[nH]c(C)cc23)cc1 [Compound F-94, (2R)-4-Methyl-2-(methylamino)-N-[4-(2-methyl-1H-pyrrolo[2,3-b]pyridin-4-yl)phenyl]pentanamide] |
| 240 | Cc1cc2c(-c3ccc(NC(=O)[C@H](N)CC(C)C)nc3C)ccnc2[nH]1 [Compound F-95, (2R)-2-Amino-4-methyl-N-[6-methyl-5-(2-methyl-1H-pyrrolo[2,3-b]pyridin-4-yl)-2-pyridyl]pentanamide] |
| 96.9 | Cc1cc2c(-c3ncc(NC(=O)[C@H](N)CC(C)(C)C)cc3C)ccnc2[nH]1 [Compound F-96, (2R)-2-Amino-4,4-dimethyl-N-[5-methyl-6-(2-methyl-1H-pyrrolo[2,3-b]pyridin-4-yl)-3-pyridyl]pentanamide] |
| 29.3 | Cc1cc2c(-c3ccc(NC(=O)[C@H](N)CC(C)(C)C)cc3C(F)F)ccnc2[nH]1 [Compound F-97, (2R)-2-Amino-N-[3-(difluoromethyl)-4-(2-methyl-1H-pyrrolo[2,3-b]pyridin-4-yl)phenyl]-4,4-dimethyl-pentanamide] |
| 30.4 | Cc1cc(NC(=O)[C@H](N)CC(C)C)ccc1-c1ccnc2[nH]c(C(F)(F)F)cc12 [Compound F-98, (2R)-2-Amino-4-methyl-N-[3-methyl-4-[2-(trifluoromethyl)-1H-pyrrolo[2,3-b]pyridin-4-yl]phenyl]pentanamide] |
| 103 | Cc1cc(NC(=O)[C@H](N)CC(C)(C)C)ccc1-c1ccnc2[nH]c(C(F)(F)F)cc12 [Compound F-99, (2R)-2-Amino-4,4-dimethyl-N-[3-methyl-4-[2-(trifluoromethyl)-1H-pyrrolo[2,3-b]pyridin-4-yl]phenyl]pentanamide] |
| 380 | Cc1cc(NC(=O)[C@H](N)C(C)(C)C)ccc1-c1ccnc2[nH]c(C(F)(F)F)cc12 [Compound F-100, (2R)-2-Amino-3,3-dimethyl-N-[3-methyl-4-[2-(trifluoromethyl)-1H-pyrrolo[2,3-b]pyridin-4-yl]phenyl]butanamide] |
| 18.1 | Cc1cc(NC(=O)[C@H](N)CC(C)C)ccc1-c1ccnc2[nH]c(C(F)F)cc12 [Compound F-101, (2R)-2-Amino-N-[4-[2-(difluoromethyl)-1H-pyrrolo[2,3-b]pyridin-4-yl]-3-methyl-phenyl]-4-methyl-pentanamide] |
| 11.7 | Cc1cc(NC(=O)[C@H](N)CC(C)(C)C)ccc1-c1ccnc2[nH]c(C(F)F)cc12 [Compound F-102, (2R)-2-Amino-N-[4-[2-(difluoromethyl)-1H-pyrrolo[2,3-b]pyridin-4-yl]-3-methyl-phenyl]-4,4-dimethyl-pentanamide] |

| IC50 [nM] | Structure (SMILES) |
| --- | --- |
| 68.1 | Cc1cc(NC(=O)[C@H](N)C(C)(C)C)ccc1-c1ccnc2[nH]c(C(F)F)cc12 [Compound F-103, (2R)-2-Amino-N-[4-[2-(difluoromethyl)-1H-pyrrolo[2,3-b]pyridin-4-yl]-3-methyl-phenyl]-3,3-dimethyl-butanamide] |
| 418 | CC(C)(C)C[C@@H](N)C(=O)Nc1ccc(-c2ccnc3[nH]c(C(F)(F)F)cc23)nc1 [Compound F-104, (2R)-2-Amino-4,4-dimethyl-N-[6-[2-(trifluoromethyl)-1H-pyrrolo[2,3-b]pyridin-4-yl]-3-pyridyl]pentanamide] |
| 266 | CC(C)(C)C[C@@H](N)C(=O)Nc1ccc(-c2ccnc3[nH]c(C(F)F)cc23)nc1 [Compound F-105, (2R)-2-Amino-N-[6-[2-(difluoromethyl)-1H-pyrrolo[2,3-b]pyridin-4-yl]-3-pyridyl]-4,4-dimethyl-pentanamide] |
| 371 | Cc1cnc2[nH]ccc2c1-c1ccc(NC(=O)[C@H](N)C(C)(C)C)cc1 [Compound F-107, (2R)-2-Amino-3,3-dimethyl-N-[4-(5-methyl-1H-pyrrolo[2,3-b]pyridin-4-yl)phenyl]butanamide] |
| 29.6 | CC(C)(C)[C@@H](N)C(=O)Nc1nc(-c2ccnc3[nH]ccc23)cs1 [Compound F-111, (2R)-2-Amino-3,3-dimethyl-N-[4-(1H-pyrrolo[2,3-b]pyridin-4-yl)thiazol-2-yl]butanamide] |
| 122 | Cc1cc2c(-c3csc(NC(=O)[C@H](N)C(C)(C)C)n3)ccnc2[nH]1 [Compound F-112, (2R)-2-Amino-3,3-dimethyl-N-[4-(2-methyl-1H-pyrrolo[2,3-b]pyridin-4-yl)thiazol-2-yl]butanamide] |
| 111 | Cc1cc2c(-c3csc(NC(=O)[C@@H](N)C(C)(C)C)n3)ccnc2[nH]1 [Compound F-113, (2S)-2-Amino-3,3-dimethyl-N-[4-(2-methyl-1H-pyrrolo[2,3-b]pyridin-4-yl)thiazol-2-yl]butanamide] |
| 244 | Cc1cc2c(-c3csc(NC(=O)[C@H](N)C(C)C)n3)ccnc2[nH]1 [Compound F-114, (2R)-2-Amino-3-methyl-N-[4-(2-methyl-1H-pyrrolo[2,3-b]pyridin-4-yl)thiazol-2-yl]butanamide] |
| 129 | Cc1cc2c(-c3csc(NC(=O)C(N)C4(C(F)(F)F)CC4)n3)ccnc2[nH]1 (stereo not drawn) [Compound F-115, 2-Amino-N-[4-(2-methyl-1H-pyrrolo[2,3-b]pyridin-4-yl)thiazol-2-yl]-2-[1-(trifluoromethyl)cyclopropyl]acetamide] |
| 368 | Cc1cc2c(-c3csc(NC(=O)[C@H](N)CC(C)C)n3)ccnc2[nH]1 [Compound F-116, (2R)-2-Amino-4-methyl-N-[4-(2-methyl-1H-pyrrolo[2,3-b]pyridin-4-yl)thiazol-2-yl]pentanamide] |
| 3000 | Cc1cc2c(-c3nc(NC(=O)[C@H](N)C(C)(C)C)sc3C)ccnc2[nH]1 [Compound F-117, (2R)-2-Amino-3,3-dimethyl-N-[5-methyl-4-(2-methyl-1H-pyrrolo[2,3-b]pyridin-4-yl)thiazol-2-yl]butanamide] |
| 144 | Cc1cc(NC(=O)[C@H](N)Cc2ccccc2)ccc1-c1ccnc2[nH]ccc12 [Compound F-127, (2R)-2-Amino-N-[3-methyl-4-(1H-pyrrolo[2,3-b]pyridin-4-yl)phenyl]-3-phenyl-propanamide] |
| 598 | COc1cc(NC(=O)[C@H](N)Cc2ccccc2)ccc1-c1ccnc2[nH]ccc12 [Compound F-128, (2R)-2-Amino-N-[3-methoxy-4-(1H-pyrrolo[2,3-b]pyridin-4-yl)phenyl]-3-phenyl-propanamide] |
| 3000 | N[C@@H](Cc1ccccc1)C(=O)Nc1ccc(-c2ccnc3[nH]ccc23)c(C(F)(F)F)c1 [Compound F-129, (2S)-2-Amino-3-phenyl-N-[4-(1H-pyrrolo[2,3-b]pyridin-4-yl)-3-(trifluoromethyl)phenyl]propanamide] |
| 1420 | N[C@H](Cc1ccccc1)C(=O)Nc1ccc(-c2ccnc3[nH]ccc23)c(C(F)(F)F)c1 [Compound F-130, (2R)-2-Amino-3-phenyl-N-[4-(1H-pyrrolo[2,3-b]pyridin-4-yl)-3-(trifluoromethyl)phenyl]propanamide] |
| 301 | COc1cc(-c2ccnc3[nH]ccc23)ccc1NC(=O)[C@H](N)Cc1ccccc1 [Compound F-131, (2R)-2-Amino-N-[2-methoxy-4-(1H-pyrrolo[2,3-b]pyridin-4-yl)phenyl]-3-phenyl-propanamide] |
